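Exposure lasted 48 hours, with cells grown in 96-well plates and compounds tested at five concentrations. Here, GI50 denotes the concentration required for 50% inhibition of growth. TGI marks complete inhibition of growth.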
Assays:
Assay in all cases: NCI tumour cell line growth inhibition, 48 h
SF-539 CNS = test system: SF-539 CNS
EKVX NSCLC = test system: EKVX NSCLC
KM12 colon = test system: KM12 colon
MDA-MB-435 = test system: MDA-MB-435
OVCAR-4 ovarian = test system: OVCAR-4 ovarian
HCC-2998 colon = test system: HCC-2998 colon
HOP-92 NSCLC = test system: HOP-92 NSCLC
ACHN renal = test system: ACHN renal
HT29 colon = test system: HT29 colon
U251 CNS = test system: U251 CNS
MCF7 breast = test system: MCF7 breast
PC-3 prostate = test system: PC-3 prostate
LOX IMVI melanoma = test system: LOX IMVI melanoma
NCI-H226 lung = test system: NCI-H226 lung
COLO 205 colon = test system: COLO 205 colon
SK-MEL-5 melanoma = test system: SK-MEL-5 melanoma
T-47D breast = test system: T-47D breast
SF-295 CNS = test system: SF-295 CNS
DU-145 prostate = test system: DU-145 prostate
M14 melanoma = test system: M14 melanoma
SF-268 CNS = test system: SF-268 CNS
MDA-MB-231 breast = test system: MDA-MB-231 breast
NCI-H522 lung = test system: NCI-H522 lung
NCI-H23 lung = test system: NCI-H23 lung
MOLT-4 leukemia = test system: MOLT-4 leukemia
RXF 393 renal = test system: RXF 393 renal
HL-60(TB) leukemia = test system: HL-60(TB) leukemia
OVCAR-5 ovarian = test system: OVCAR-5 ovarian
A498 renal = test system: A498 renal
UO-31 renal = test system: UO-31 renal
OVCAR-8 ovarian = test system: OVCAR-8 ovarian
OVCAR-3 ovarian = test system: OVCAR-3 ovarian
SK-MEL-2 melanoma = test system: SK-MEL-2 melanoma
SN12C renal = test system: SN12C renal
SK-MEL-28 melanoma = test system: SK-MEL-28 melanoma
786-0 renal = test system: 786-0 renal
SR leukemia = test system: SR leukemia
SW-620 colon = test system: SW-620 colon
NCI/ADR-RES ovarian = test system: NCI/ADR-RES ovarian
HCT-15 colon = test system: HCT-15 colon
BT-549 breast = test system: BT-549 breast
HCT-116 colon = test system: HCT-116 colon
SK-OV-3 ovarian = test system: SK-OV-3 ovarian
CAKI-1 renal = test system: CAKI-1 renal
SNB-19 CNS = test system: SNB-19 CNS
K-562 leukemia = test system: K-562 leukemia
RPMI-8226 leukemia = test system: RPMI-8226 leukemia
UACC-62 melanoma = test system: UACC-62 melanoma
UACC-257 melanoma = test system: UACC-257 melanoma
NCI-H460 lung = test system: NCI-H460 lung
SNB-75 CNS = test system: SNB-75 CNS
A549 NSCLC = test system: A549 NSCLC
HS 578T breast = test system: HS 578T breast
IGROV1 ovarian = test system: IGROV1 ovarian

What does the source list for `O=C(Nc1ccc(F)cc1)c1ccc(NC2=C(Cl)C(=O)N(Cc3ccccc3)C2=O)cc1`?
GI50 (SF-539 CNS): 11.2 µM; TGI (SF-539 CNS): 26.7 µM; GI50 (EKVX NSCLC): 27 µM; TGI (EKVX NSCLC): 87 µM; GI50 (KM12 colon): 15.9 µM; TGI (KM12 colon): 38 µM; GI50 (MDA-MB-435): 7.07 µM; TGI (MDA-MB-435): 26.3 µM; GI50 (OVCAR-4 ovarian): 16.5 µM; TGI (OVCAR-4 ovarian): 39.6 µM; GI50 (HCC-2998 colon): 11 µM; TGI (HCC-2998 colon): > 100 µM; GI50 (HOP-92 NSCLC): 5.23 µM; TGI (HOP-92 NSCLC): 19.1 µM; GI50 (ACHN renal): 14.3 µM; TGI (ACHN renal): 27.8 µM; GI50 (HT29 colon): 13.1 µM; TGI (HT29 colon): > 100 µM; GI50 (U251 CNS): 11 µM; TGI (U251 CNS): 24.1 µM; GI50 (MCF7 breast): 6.24 µM; TGI (MCF7 breast): > 100 µM; GI50 (PC-3 prostate): 7.42 µM; TGI (PC-3 prostate): 22.3 µM; GI50 (LOX IMVI melanoma): 11.3 µM; TGI (LOX IMVI melanoma): 25.2 µM; GI50 (NCI-H226 lung): 13.5 µM; TGI (NCI-H226 lung): 33.3 µM; GI50 (COLO 205 colon): 22.1 µM; TGI (COLO 205 colon): > 100 µM; GI50 (SK-MEL-5 melanoma): 18.5 µM; TGI (SK-MEL-5 melanoma): 63.7 µM; GI50 (T-47D breast): 5.69 µM; TGI (T-47D breast): > 100 µM; GI50 (SF-295 CNS): 4.27 µM; TGI (SF-295 CNS): 16.6 µM; GI50 (DU-145 prostate): 6.48 µM; TGI (DU-145 prostate): 29.8 µM; GI50 (M14 melanoma): 13.4 µM; TGI (M14 melanoma): 30.3 µM; GI50 (SF-268 CNS): 4.4 µM; TGI (SF-268 CNS): 23.6 µM; GI50 (MDA-MB-231 breast): 17.2 µM; TGI (MDA-MB-231 breast): 38 µM; GI50 (NCI-H522 lung): 7.27 µM; TGI (NCI-H522 lung): 28.8 µM; GI50 (NCI-H23 lung): 31.5 µM; TGI (NCI-H23 lung): 84.4 µM; GI50 (MOLT-4 leukemia): 3.79 µM; TGI (MOLT-4 leukemia): 21 µM; GI50 (RXF 393 renal): 12.2 µM; TGI (RXF 393 renal): 32.2 µM; GI50 (HL-60(TB) leukemia): 2.31 µM; TGI (HL-60(TB) leukemia): 7.35 µM; GI50 (OVCAR-5 ovarian): 9.15 µM; TGI (OVCAR-5 ovarian): 27.1 µM; GI50 (A498 renal): 13.6 µM; TGI (A498 renal): 31.9 µM; GI50 (UO-31 renal): 10.5 µM; TGI (UO-31 renal): 23.4 µM; GI50 (OVCAR-8 ovarian): 4.66 µM; TGI (OVCAR-8 ovarian): 30.9 µM; GI50 (OVCAR-3 ovarian): 3.59 µM; TGI (OVCAR-3 ovarian): 15.3 µM; GI50 (SK-MEL-2 melanoma): 5.34 µM; TGI (SK-MEL-2 melanoma): 19.3 µM; GI50 (SN12C renal): 4.12 µM; TGI (SN12C renal): 16.4 µM; GI50 (SK-MEL-28 melanoma): 16.5 µM; TGI (SK-MEL-28 melanoma): 39.5 µM; GI50 (786-0 renal): 10.5 µM; TGI (786-0 renal): 22.9 µM; GI50 (SR leukemia): 0.848 µM; TGI (SR leukemia): 2.54 µM; GI50 (SW-620 colon): 4.54 µM; TGI (SW-620 colon): > 100 µM; GI50 (NCI/ADR-RES ovarian): 53.3 µM; TGI (NCI/ADR-RES ovarian): > 100 µM; GI50 (HCT-15 colon): 13.3 µM; TGI (HCT-15 colon): 49.4 µM; GI50 (BT-549 breast): 3.14 µM; TGI (BT-549 breast): 10.8 µM; GI50 (HCT-116 colon): 2.23 µM; TGI (HCT-116 colon): 4.82 µM; GI50 (SK-OV-3 ovarian): 24 µM; TGI (SK-OV-3 ovarian): 68 µM; GI50 (CAKI-1 renal): 1.78 µM; TGI (CAKI-1 renal): 3.36 µM; GI50 (SNB-19 CNS): 10.8 µM; TGI (SNB-19 CNS): 41.3 µM; GI50 (K-562 leukemia): 3.79 µM; TGI (K-562 leukemia): 13.7 µM; GI50 (RPMI-8226 leukemia): 3.43 µM; TGI (RPMI-8226 leukemia): 12.3 µM; GI50 (UACC-62 melanoma): 18.1 µM; TGI (UACC-62 melanoma): 38.5 µM; GI50 (UACC-257 melanoma): 19.8 µM; TGI (UACC-257 melanoma): 56 µM; GI50 (NCI-H460 lung): 7.32 µM; TGI (NCI-H460 lung): > 100 µM; GI50 (SNB-75 CNS): 15.9 µM; TGI (SNB-75 CNS): 37.4 µM; GI50 (A549 NSCLC): 8.68 µM; TGI (A549 NSCLC): 39 µM; GI50 (HS 578T breast): 13.2 µM; TGI (HS 578T breast): 62.3 µM; GI50 (IGROV1 ovarian): 1.06 µM; TGI (IGROV1 ovarian): 3.58 µM
